Test results published in patent US11725010B2, “Polyheterocyclic compounds as METTL3 inhibitors” (Storm Therapeutics Limited, priority 2019, dated 2023).
Where two headings read alike, the source gives them in different places.

Columns and labels:
Caov-3 cells = test: Caov3 CTG proliferation assay; type: cell-based; conditions: Homo sapiens
Description: CTG Assay (Caov3 Cell Line)
Upon treatment, Coav-3 cells were incubated for 10 min at RT with the CellTiter-Glo reagent (G7571, Promega). Measurement of the luminescence signal was performed on a microplate reader (Ensight, PerkinElmer).
Caov3 CTG Assay—Proliferation Assay

METTL3/14 = METTL3/14 (Homo sapiens (Human), UniProt Q86U44)
Sequence of METTL3/14 (Q86U44 whole entry): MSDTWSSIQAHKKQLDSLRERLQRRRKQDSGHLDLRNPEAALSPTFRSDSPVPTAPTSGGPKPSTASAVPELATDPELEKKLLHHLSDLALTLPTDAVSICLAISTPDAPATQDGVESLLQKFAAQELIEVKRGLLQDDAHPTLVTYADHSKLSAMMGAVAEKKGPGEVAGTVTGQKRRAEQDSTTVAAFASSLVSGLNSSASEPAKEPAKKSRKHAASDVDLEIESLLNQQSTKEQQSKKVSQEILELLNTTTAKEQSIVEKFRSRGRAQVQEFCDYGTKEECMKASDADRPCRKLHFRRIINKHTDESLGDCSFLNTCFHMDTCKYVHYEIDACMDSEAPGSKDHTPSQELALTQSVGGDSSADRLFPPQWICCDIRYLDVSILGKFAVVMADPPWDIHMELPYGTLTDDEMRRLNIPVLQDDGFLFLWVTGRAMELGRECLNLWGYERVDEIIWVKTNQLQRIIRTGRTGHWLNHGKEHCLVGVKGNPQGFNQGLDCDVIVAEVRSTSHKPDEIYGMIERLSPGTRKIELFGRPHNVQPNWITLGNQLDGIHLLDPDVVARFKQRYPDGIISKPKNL
Sequence of METTL3/14 (Q9HCE5 whole entry partner): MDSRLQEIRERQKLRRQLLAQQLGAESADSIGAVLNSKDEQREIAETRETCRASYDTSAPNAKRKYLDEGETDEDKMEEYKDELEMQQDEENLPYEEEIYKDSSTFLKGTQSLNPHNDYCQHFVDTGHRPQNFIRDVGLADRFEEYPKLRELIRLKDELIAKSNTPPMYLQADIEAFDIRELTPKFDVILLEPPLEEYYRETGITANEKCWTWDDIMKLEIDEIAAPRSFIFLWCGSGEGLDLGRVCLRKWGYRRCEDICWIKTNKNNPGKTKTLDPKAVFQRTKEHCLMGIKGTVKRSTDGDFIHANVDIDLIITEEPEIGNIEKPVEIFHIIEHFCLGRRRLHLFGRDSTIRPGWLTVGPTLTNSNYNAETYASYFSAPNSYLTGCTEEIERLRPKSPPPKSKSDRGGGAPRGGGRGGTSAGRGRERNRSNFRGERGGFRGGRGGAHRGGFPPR

KASUMI-1 cells = test: Kasumi cell assay (CellTiter-Glo cell growth); type: cell-based; conditions: Homo sapiens
Description: Upon treatment, Kasumil cells were incubated for 10 min at RT with the CellTiter-Glo reagent (G7571, Promega). Measurement of the luminescence signal was performed on a microplate reader (Ensight, PerkinElmer).

[1] = Caov-3, treated for 120 hours, CellTiter-Glo luminescence, read-out: Caov3 cells IC50
[2] = Kasumi 1, treated for 120 hours, CellTiter-Glo luminescence, read-out: KASUMI1 cells IC50
[3] = Kasumi 1, 120 h, read-out: KASUMI1 cells IC50 nM

SMILES | IC50 (Caov-3 cells; [1]) [nM] | IC50 (METTL3/14) [nM] | IC50 (KASUMI-1 cells; [2]) [nM] | IC50 (Caov-3 cells; Caov-3, 120 h, read-out: Caov3 cells IC50 nM) [nM] | IC50 (KASUMI-1 cells; [3]) [nM]
O=C(NCc1cc2[nH]c(CNCC34CC(C3)C4)cc2cn1)c1cc(=O)n2ccccc2n1 [Compound 131, N-[(2-{[({bicyclo[1.1.1]pentan-1-yl}methyl)amino]methyl}-1H-pyrrolo[3,2-c]pyridin-6-yl)methyl]-4-oxo-4H-pyrido[1,2-a]pyrimidine-2-carboxamide] | 237 | 6.1 | 1140 | – | –
O=C(NCc1ccc2cc(CN3CC4CCCC4C3)[nH]c2c1)c1cc(=O)n2ccccc2n1 (stereo not drawn) [Compound 106, N-{[2-({octahydrocyclopenta[c]pyrrol-2-yl}methyl)-1H-indol-6-yl]methyl}-4-oxo-4H-pyrido[1,2-a]pyrimidine-2-carboxamide] | 911 | 6.1 | 1830 | – | –
O=C(NCc1cc2[nH]c(CN3CCC4(CCC4)C3)cc2cn1)c1cc(=O)n2ccccc2n1 [Compound 145, N-((2-((6-azaspiro[3.4]octan-6-yl)methyl)-1H-pyrrolo[3,2-c]pyridin-6-yl)methyl)-4-oxo-4H-pyrido[1,2-a]pyrimidine-2-carboxamide] | 201 | < 6.1 | 717 | – | –
O=C(NCc1ccc2cc(CNCC34CC(F)(C3)C4)[nH]c2c1)c1cc(=O)n2ccccc2n1 [Compound 23, N-[(2-{[({3-fluorobicyclo[1.1.1]pentan-1-yl}methyl)amino]methyl}-1H-indol-6-yl)methyl]-4-oxo-4H-pyrido[1,2-a]pyrimidine-2-carboxamide] | 80.1 | 6.1 | 263 | – | –
CC(C)(C)C1CN(Cc2cc3ccc(CNC(=O)c4cc(=O)n5ccccc5n4)cc3[nH]2)C1 [Compound 97, N-({2-[(3-tert-butylazetidin-1-yl)methyl]-1H-indol-6-yl}methyl)-4-oxo-4H-pyrido[1,2-a]pyrimidine-2-carboxamide] | 1020 | – | 3090 | – | –
c1cc(-c2cn(Cc3cc4[nH]c(CN5CCC6(CCC6)C5)cc4cn3)nn2)c2cncn2c1 [Example 155, 2-((6-azaspiro[3.4]octan-6-yl)methyl)-6-((4-(imidazo[1,5-a]pyridin-8-yl)-1H-1,2,3-triazol-1-yl)methyl)-1H-pyrrolo[3,2-c]pyridine] | 473 | < 6.1 | 547 | – | –
c1cc(-c2cn(Cc3ccc4cc(CN5CC6(CCC6)C5)[nH]c4c3)nn2)c2cn[nH]c2c1 [Compound 122, 4-(1-{[2-({2-azaspiro[3.3]heptanean-2-yl}methyl)-1H-indol-6-yl]methyl}-1H-1,2,3-triazol-4-yl)-1H-indazole] | 525 | 6.1 | 1100 | – | –
CC1(C)CCN(Cc2cc3ccc(CNC(=O)c4cc(=O)n5ccccc5n4)cc3[nH]2)C1 [Compound 92, N-({2-[(3,3-dimethylpyrrolidin-1-yl)methyl]-1H-indol-6-yl}methyl)-4-oxo-4H-pyrido[1,2-a]pyrimidine-2-carboxamide] | 598 | 6.1 | 1610 | – | –
O=C(NCc1ccc2cc(CN3CC4(CCCCC4)C3)[nH]c2c1)c1cc(=O)n2ccccc2n1 [Compound 90, N-{[2-({2-azaspiro[3.5]nonan-2-yl}methyl)-1H-indol-6-yl]methyl}-4-oxo-4H-pyrido[1,2-a]pyrimidine-2-carboxamide] | 602 | 6.1 | 1250 | – | –
O=C(NCc1ccc2cc(CN3CC(C4CCC4)C3)[nH]c2c1)c1cc(=O)n2ccccc2n1 [Compound 95, N-({2-[(3-cyclobutylazetidin-1-yl)methyl]-1H-indol-6-yl}methyl)-4-oxo-4H-pyrido[1,2-a]pyrimidine-2-carboxamide] | 960 | 6.1 | 3190 | – | –
COc1cc(-c2cn(Cc3ccc4cc(CNCC5CCC5)[nH]c4c3)nn2)c2cncn2c1 [Example 63, N-(cyclobutylmethyl)-1-[6-[[4-(6-methoxyimidazo[1,5-a]pyridin-8-yl)triazol-1-yl]methyl]-1H-indol-2-yl]methanamine] | 257 | – | 869 | – | –
O=C(NCc1ccc2cc(CNCC34CC(F)(C3)C4)[nH]c2c1)c1cc(=O)n2ccsc2n1 [Example 125, N-[(2-{[({3-fluorobicyclo[1.1.1]pentan-1-yl}methyl)amino]methyl}-1H-indol-6-yl)methyl]-5-oxo-5H-[1,3]thiazolo[3,2-a]pyrimidine-7-carboxamide] | 212 | 6.1 | 504 | – | –
CC1CC(CNCc2cc3ccc(CNC(=O)c4cc(=O)n5ccccc5n4)cc3[nH]2)C1 (stereo not drawn) [Compound 99, N-{[2-({[(3-methylcyclobutyl)methyl]amino}methyl)-1H-indol-6-yl]methyl}-4-oxo-4H-pyrido[1,2-a]pyrimidine-2-carboxamide] | 1090 | – | 3260 | – | –
O=C(NCc1ccc2cc(CN[C@H]3CCC[C@H]3O)[nH]c2c1)c1cc(=O)n2ccccc2n1 [Compound 38, N-{[2-({[(1S,2R)-2-hydroxycyclopentyl]amino}methyl)-1H-indol-6-yl]methyl}-4-oxo-4H-pyrido[1,2-a]pyrimidine-2-carboxamide] | – | 6.1 | – | 458 | 2310
N#CC12CC(CNCc3cc4ccc(CNC(=O)c5cc(=O)n6ccccc6n5)cc4[nH]3)(C1)C2 [Compound 111, N-[(2-{[({3-cyanobicyclo[1.1.1]pentan-1-yl}methyl)amino]methyl}-1H-indol-6-yl)methyl]-4-oxo-4H-pyrido[1,2-a]pyrimidine-2-carboxamide] | – | – | 2290 | – | –
c1cc(-c2cn(Cc3cc4[nH]c(CNCC5CCC5)cc4cn3)nn2)c2cn[nH]c2c1 [Example 60, N-(cyclobutylmethyl)-1-[6-[[4-(1H-indazol-4-yl)triazol-1-yl]methyl]-1H-pyrrolo[3,2-c]pyridin-2-yl]methanamine] | 423 | 6.1 | 2180 | – | –
O=C(NCc1ccc2cc(CNCC3CC34CC4)[nH]c2c1)c1cc(=O)n2ccccc2n1 (stereo not drawn) [Compound 109, 4-oxo-N-[(2-{[({spiro[2.2]pentan-1-yl}methyl)amino]methyl}-1H-indol-6-yl)methyl]-4H-pyrido[1,2-a]pyrimidine-2-carboxamide] | 608 | 6.1 | 1470 | – | –
CC(C)(C)C(C)(C)NCc1cc2ccc(CNC(=O)c3cc(=O)n4ccccc4n3)cc2[nH]1 [Compound 100, 4-oxo-N-[(2-{[(2,3,3-trimethylbutan-2-yl)amino]methyl}-1H-indol-6-yl)methyl]-4H-pyrido[1,2-a]pyrimidine-2-carboxamide] | 685 | – | 2540 | – | –
O=C(NCc1ccc2cc(CN3CC4(CCC4)C3)[nH]c2c1)c1cc(=O)n2ccccc2n1 [Compound 67, N-[[2-(2-azaspiro[3.3]heptanean-2-ylmethyl)-1H-indol-6-yl]methyl]-4-oxo-pyrido[1,2-a]pyrimidine-2-carboxamide] | 482 | 6.1 | 1720 | – | –
O=C(NCc1ccc2cc(CN3CC4(C3)CC(F)(F)C4)[nH]c2c1)c1cc(=O)n2ccccc2n1 [Compound 94, N-{[2-({6,6-difluoro-2-azaspiro[3.3]heptanean-2-yl}methyl)-1H-indol-6-yl]methyl}-4-oxo-4H-pyrido[1,2-a]pyrimidine-2-carboxamide] | 681 | 6.1 | 2240 | – | –
O=C(NCc1ccc2cc(CNC3(C4CCC4)CC3)[nH]c2c1)c1cc(=O)n2ccccc2n1 [Compound 116, N-[(2-{[(1-cyclobutylcyclopropyl)amino]methyl}-1H-indol-6-yl)methyl]-4-oxo-4H-pyrido[1,2-a]pyrimidine-2-carboxamide] | – | 6.1 | 5070 | – | –
CN(Cc1cc2ccc(CNC(=O)c3cc(=O)n4ccccc4n3)cc2[nH]1)CC1CCC1 [Example 70, N-[[2-[[cyclobutylmethyl(methyl)amino]methyl]-1H-indol-6-yl]methyl]-4-oxo-pyrido[1,2-a]pyrimidine-2-carboxamide] | – | – | – | – | 4900
CC1(C)CN(Cc2cc3ccc(CNC(=O)c4cc(=O)n5ccccc5n4)cc3[nH]2)C1 [Compound 83, N-({2-[(3,3-dimethylazetidin-1-yl)methyl]-1H-indol-6-yl}methyl)-4-oxo-4H-pyrido[1,2-a]pyrimidine-2-carboxamide] | – | – | 3680 | – | –
COc1cnc(C#N)c(-c2cn(Cc3ccc4cc(CNCC5CCC5)[nH]c4c3)nn2)c1 [Example 151, 3-{1-[(2-{[(Cyclobutylmethyl)amino]methyl}-1H-indol-6-yl)methyl]-1H-1,2,3-triazol-4-yl}-5-methoxy-2-pyridinecarbonitrile] | 9060 | – | 7220 | – | –
O=C(NCc1ccc2cc(CNC3CCCC3)[nH]c2c1)c1cc(=O)n2ccccc2n1 [Compound 26, N-[[2-[(cyclopentylamino)methyl]-1H-indol-6-yl]methyl]-4-oxo-pyrido[1,2-a]pyrimidine-2-carboxamide] | 274 | 6.1 | – | – | –
O=C(NCc1ccc2cc(CNCC3CCCC3)[nH]c2c1)c1cc(=O)n2ccccc2n1 [Compound 27, N-[[2-[(cyclopentylmethylamino)methyl]-1H-indol-6-yl]methyl]-4-oxo-pyrido[1,2-a]pyrimidine-2-carboxamide] | 420 | 6.1 | – | – | –
N#Cc1ncc(F)cc1-c1cn(Cc2ccc3cc(CNCC4CCC4)[nH]c3c2)nn1 [Example 152, 3-(1-((2-(((cyclobutylmethyl)amino)methyl)-1H-indol-6-yl)methyl)-1H-1,2,3-triazol-4-yl)-5-fluoropicolinonitrile] | 5430 | – | 9960 | – | –
